EC50 data for four molecules are collected here from US6387655B1, “Excitatory amino acid receptor protein and related nucleic acid compounds” (Eli Lilly and Company, priority 1995, dated 2002).

The target in this experiment is T1, human HmGluR3 (Homo sapiens, UniProt Q14832).
T1 construct: expressed in transfected cells; host or cells: RGT (RGT-18) cells, i.e. AV12 cells stably expressing the rat glutamate transporter GLAST
Put plainly: Inhibition of forskolin-stimulated cAMP synthesis (adenylate cyclase activity) in RGT cells stably transfected with pGTh-HmGluR3. Type of experiment: cell-based. How it is done:
In an especially preferred embodiment of this invention an assay measuring the inhibition of forskolin-stimulated cAMP synthesis was performed. The inhibition of cAMP synthesis is known to positively correlated with the addition of glutamate to cells containing certain types of metabotropic receptors.
Adenylate cyclase activity was determined in initial experiments in transfected mammalian cells, using standard techniques. See. e.g., N. Adham, et al., supra,; R. L. Weinshank, et al., Proceedings of the National Academy of Sciences (USA), 89:3630-3634 (1992), and the references cited therein.
As noted above, mammalian cells (the cell line RGT) were stably transfected with the plasmid pGTh-HmGluR3, containing human HmGluR3 cDNA inserted in the plasmid vector pGTh, as depicted in FIG. 2. The cells were maintained in a medium consisting of Dulbecco's Modified Eagle's Medium (DMEM) containing 5% dialyzed fetal calf serum, 10 mM HEPES buffer (pH 7.3), 1 mM sodium pyruvate, 1 mM glutamine, and 200 μg/ml hygromycin.
For the assay the cells were disassociated from stock culture flasks with trypsin, and planted in 24-well plastic culture dishes (15 mm wells) at a density of 500-700,000 cells per well using the same culture medium. After twenty four hours incubation in a humidified carbon dioxide incubator, the cell monolayers are washed with buffer (Dulbecco's phosphate-buffered saline containing 0.5 mM isobutylmethylxanthine and 3 mM glucose) and then incubated in the same buffer at 37° C. for 30 minutes. The monolayers are then washed four additional times with buffer.
Drugs and forskolin, or forskolin alone, dissolved in buffer, was added after the final wash. After incubating for 20 minutes at 37° C., 0.5 ml of 8 mM EDTA was added to each well. The plates were then placed in a boiling water bath for about four minutes. The supernatant fluids are then recovered from the wells and lyophilized. Cyclic adenosinemonophosphate (cAMP) determinations were carried out on the lyophilized samples using commercially available radioimmunoassay kits, following the manufacturer's instructions. The cAMP level in wells containing drug was compared to the forskolin controls.

[1] abbreviates: RGT cells expressing HmGluR3, cAMP by radioimmunoassay versus forskolin controls, 20 minutes at 37° C., read-out: EC50 (potencies of selected agonists for HmGluR3 expressed in RGT cells).

The structures appear in SMILES notation. Where two headings read alike, the source gives them in different places.

T1 sequence (Q14832 23-879): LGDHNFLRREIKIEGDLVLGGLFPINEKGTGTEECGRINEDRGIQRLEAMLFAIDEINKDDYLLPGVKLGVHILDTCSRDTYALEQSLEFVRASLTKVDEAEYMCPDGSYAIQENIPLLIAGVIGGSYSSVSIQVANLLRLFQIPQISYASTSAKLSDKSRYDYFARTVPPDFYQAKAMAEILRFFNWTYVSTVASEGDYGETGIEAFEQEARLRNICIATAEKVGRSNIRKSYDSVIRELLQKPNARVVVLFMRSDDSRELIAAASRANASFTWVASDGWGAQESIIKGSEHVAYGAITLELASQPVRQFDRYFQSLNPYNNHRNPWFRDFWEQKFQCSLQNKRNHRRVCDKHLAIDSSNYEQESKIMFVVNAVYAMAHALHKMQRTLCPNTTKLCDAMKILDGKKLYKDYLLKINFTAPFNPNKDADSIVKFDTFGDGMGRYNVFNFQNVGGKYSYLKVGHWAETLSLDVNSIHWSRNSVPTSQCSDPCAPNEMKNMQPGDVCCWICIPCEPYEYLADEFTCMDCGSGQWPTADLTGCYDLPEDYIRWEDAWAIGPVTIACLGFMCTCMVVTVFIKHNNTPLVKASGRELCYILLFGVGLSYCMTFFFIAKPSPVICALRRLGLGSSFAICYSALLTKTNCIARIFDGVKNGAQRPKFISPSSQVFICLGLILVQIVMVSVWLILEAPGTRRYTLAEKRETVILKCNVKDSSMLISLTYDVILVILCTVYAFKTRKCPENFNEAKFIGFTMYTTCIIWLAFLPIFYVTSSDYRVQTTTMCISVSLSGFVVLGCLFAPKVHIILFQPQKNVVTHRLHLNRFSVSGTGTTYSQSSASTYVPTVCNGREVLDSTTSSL

The EC50 is the concentration giving half of the maximal effect. Take `NC1(C(=O)O)CNC(C(=O)O)C1` (stereo not drawn) [2R,4R-4-aminopyrrolidine-2,4-dicarboxylate]: the EC50 under setting [1] was found to be 550 nM.

In turn, `NC1(C(=O)O)CCC(C(=O)O)C1` (stereo not drawn) [1S,3R-1-aminocyclopentant-1,3-dicarboxylic acid] came in with an EC50 of 2230 nM.

Take `N[C@@H](CCC(=O)O)C(=O)O` [L-Glutamate, 1-aminopropane-1,3-dicarboxylic acid]: the EC50 stood at 5380 nM.

For `N[C@H](C(=O)O)C1CC1C(=O)O` (stereo partly drawn) [L-2-(carboxycyclopropyl)glycine-I], under setting [1], the EC50 is 12 nM.
